Source: the SangsterLogP compilation

`Clc1cc(Cl)c(Cl)c(-c2ccc(Cl)c(Cl)c2Cl)c1` gave a logP of 6.79.

With `Clc1cc(Cl)c(-c2cc(Cl)c(Cl)c(Cl)c2)c(Cl)c1` the logP was 6.74.

Work on `Clc1cc(Cl)c(-c2cc(Cl)c(Cl)cc2Cl)c(Cl)c1` yielded a logP of 6.46.

With `Clc1cccc(-c2c(Cl)c(Cl)cc(Cl)c2Cl)c1Cl` the logP was 6.42.

Work on `Clc1ccccc1-c1c(Cl)c(Cl)c(Cl)c(Cl)c1Cl` yielded a logP of 6.49.

With `Clc1cc(Cl)c(Cl)c(-c2c(Cl)ccc(Cl)c2Cl)c1` the logP was 6.41.

For `Clc1ccc(-c2cc(Cl)c(Cl)c(Cl)c2Cl)c(Cl)c1`, the logP was 6.8.

For `Clc1cc(Cl)c(-c2c(Cl)cccc2Cl)c(Cl)c1Cl`, the logP was 6.28.

`Clc1cc(Cl)cc(-c2cc(Cl)c(Cl)c(Cl)c2Cl)c1` showed a logP of 7.01.

`Clc1ccc(-c2c(Cl)c(Cl)c(Cl)c(Cl)c2Cl)cc1` showed a logP of 6.87.

In the case of `Clc1ccc(Cl)c(-c2c(Cl)ccc(Cl)c2Cl)c1Cl`, the logP is reported as 6.27.

`Clc1cc(Cl)cc(-c2c(Cl)cc(Cl)c(Cl)c2Cl)c1` gave a logP of 6.68.

In the case of `Clc1cc(Cl)cc(-c2c(Cl)c(Cl)cc(Cl)c2Cl)c1`, the logP is reported as 6.68.

`Clc1ccc(-c2c(Cl)ccc(Cl)c2Cl)c(Cl)c1Cl` gave a logP of 6.61.

Molecule `Clc1cccc(-c2c(Cl)c(Cl)c(Cl)c(Cl)c2Cl)c1` has a logP of 6.84.

`Clc1cc(-c2c(Cl)cccc2Cl)c(Cl)c(Cl)c1Cl` showed a logP of 6.5.

Molecule `Clc1cc(Cl)c(-c2c(Cl)ccc(Cl)c2Cl)c(Cl)c1` has a logP of 6.31.

Work on `Clc1cc(Cl)c(Cl)c(-c2cc(Cl)cc(Cl)c2Cl)c1` yielded a logP of 6.63.

Work on `Clc1cc(Cl)c(Cl)c(-c2cc(Cl)c(Cl)c(Cl)c2)c1` yielded a logP of 7.02.

`Clc1cc(Cl)c(Cl)c(-c2cc(Cl)c(Cl)cc2Cl)c1` showed a logP of 6.71.

With `Clc1cc(Cl)c(-c2cc(Cl)cc(Cl)c2Cl)c(Cl)c1` the logP was 6.45.

`Clc1cccc(-c2c(Cl)cc(Cl)c(Cl)c2Cl)c1Cl` gave a logP of 6.43.

For `Clc1ccc(-c2c(Cl)c(Cl)cc(Cl)c2Cl)c(Cl)c1`, the logP was 6.52.

Work on `Clc1cc(Cl)c(Cl)c(-c2c(Cl)cccc2Cl)c1Cl` yielded a logP of 6.1.

Work on `Clc1cc(Cl)c(-c2c(Cl)ccc(Cl)c2Cl)cc1Cl` yielded a logP of 6.46.
